# US9296704B2, “Substituted pyrimidines as protein kinase inhibitors” (CELGENE AVILOMICS RESEARCH, INC., priority 2007, dated 2016)
# How the values were obtained:
# Assay type in all cases: biochemical
# JAK3 = target: T1, JAK3 (Homo sapiens, UniProt P52333); assay: Omnia assay for potency against JAK3; conditions: read-out: JAK3 Inhibition
# T1 sequence (P52333 1-1124): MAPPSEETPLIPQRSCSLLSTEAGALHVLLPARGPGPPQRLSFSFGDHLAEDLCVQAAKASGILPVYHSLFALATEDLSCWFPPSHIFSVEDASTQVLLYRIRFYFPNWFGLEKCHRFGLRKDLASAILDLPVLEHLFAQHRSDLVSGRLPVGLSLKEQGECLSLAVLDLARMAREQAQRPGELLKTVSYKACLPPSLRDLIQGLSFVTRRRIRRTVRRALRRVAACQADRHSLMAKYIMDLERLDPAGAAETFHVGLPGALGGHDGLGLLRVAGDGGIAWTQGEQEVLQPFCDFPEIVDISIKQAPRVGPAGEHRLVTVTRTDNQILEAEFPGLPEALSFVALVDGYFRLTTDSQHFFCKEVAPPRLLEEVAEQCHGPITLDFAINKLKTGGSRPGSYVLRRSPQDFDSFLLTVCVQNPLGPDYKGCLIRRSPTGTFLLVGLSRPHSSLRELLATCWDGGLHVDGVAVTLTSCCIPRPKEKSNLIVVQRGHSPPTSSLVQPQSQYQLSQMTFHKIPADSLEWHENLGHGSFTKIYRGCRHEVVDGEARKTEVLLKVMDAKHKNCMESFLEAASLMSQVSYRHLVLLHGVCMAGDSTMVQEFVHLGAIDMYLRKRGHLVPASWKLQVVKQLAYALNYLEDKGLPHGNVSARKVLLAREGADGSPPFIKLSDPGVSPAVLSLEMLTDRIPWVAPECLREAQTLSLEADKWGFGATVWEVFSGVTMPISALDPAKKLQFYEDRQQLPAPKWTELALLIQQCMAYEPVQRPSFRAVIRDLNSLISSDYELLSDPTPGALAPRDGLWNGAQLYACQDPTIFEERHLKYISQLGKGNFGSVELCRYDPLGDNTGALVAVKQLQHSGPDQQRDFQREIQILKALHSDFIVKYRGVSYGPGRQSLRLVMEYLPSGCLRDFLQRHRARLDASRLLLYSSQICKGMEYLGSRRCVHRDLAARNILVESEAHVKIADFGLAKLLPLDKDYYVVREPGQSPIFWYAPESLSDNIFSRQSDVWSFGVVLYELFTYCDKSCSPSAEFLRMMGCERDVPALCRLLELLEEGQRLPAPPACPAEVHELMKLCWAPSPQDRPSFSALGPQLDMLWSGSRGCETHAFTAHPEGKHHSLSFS
# From the text: (§1) The protocol below describes continuous-read kinase assays to measure inherent potency of compounds against active forms of EGFR (WT) and EGFR (T790M/L858R) enzymes. The mechanics of the assay platform are best described by the vendor (Invitrogen, Carlsbad, Calif.) on their website at the following URL: http://www.invitrogen.com/content.cfm?pageid=11338 or http://www.invitrogen.com/site/us/en/home/Products-and-Services/Applications/Drug-Discovery/Target-and-Lead-Identification-and-Validation/KinaseBiology/KB-Misc/Biochemical-Assays/Omnia-Kinase-Assays.html.
# (§2) Briefly, 10× stocks of EGFR-WT (PV3872) from Invitrogen and EGFR-T790M/L858R (40350) from BPS Bioscience, San Diego, Calif., 1.13×ATP (AS001A) and appropriate Tyr-Sox conjugated peptide substrates (KCZI001) were prepared in 1× kinase reaction buffer consisting of 20 mM Tris, pH 7.5, 5 mM MgCl2, 1 mM EGTA, 5 mM β-glycerophosphate, 5% glycerol (10× stock, KB002A) and 0.2 mM DTT (DS001A). 5 μL of each enzyme were pre-incubated in a Corning (#3574) 384-well, white, non-binding surface microtiter plate (Corning, NY) for 30 min. at 27° C. with a 0.5 μL volume of 50% DMSO and serially diluted compounds prepared in 50% DMSO. Kinase reactions were started with the addition of 45 μL of the ATP/Tyr-Sox peptide substrate mix and monitored every 30-90 seconds for 60 minutes at λex360/λem485 in a Synergy^4 plate reader from BioTek (Winooski, Vt.). At the conclusion of each assay, progress curves from each well were examined for linear reaction kinetics and fit statistics (R^2, 95% confidence interval, absolute sum of squares). Initial velocity (0 minutes to ˜30 minutes) from each reaction was determined from the slope of a plot of relative fluorescence units vs time (minutes) and then plotted against inhibitor concentration to estimate IC50 from log [Inhibitor] vs Response, Variable Slope model in GraphPad Prism from GraphPad Software (San Diego, Calif.).
# The Omnia Assay Protocol for potency assessment against JAK3 is performed in a substantially similar manner as that described in Example 25 above except that the modified JAK3-optimized reagent conditions are: • [JAK3]=5 nM, [ATP]=5 μM, [Y12-Sox]=5 μM (ATP KMapp ˜[…]).
# EGFR (WT) = target: T2, EGFR (WT) (Homo sapiens, UniProt P00533); assay: Omnia continuous-read kinase assay, EGFR (WT); conditions: read-out: EGFR inhibtion
# T2 construct: purchased Invitrogen PV3872
# From the text: as §1, §2
# (§3) The EGFR-WT- and EGFR T790M/L858R-modified optimized reagent conditions are: • [EGFR-WT]=5 nM, [ATP]=[…], [Y12-Sox]=[…]; and [EGFR-T790M/L858R]=3 nM, [ATP]=[…], [Y12-Sox]=[…].
# BTK = BTK (Homo sapiens, UniProt Q06187); assay: Omnia assay for potency against BTK; conditions: read-out: BTK Inhibition
# From the text: as §1, §2
# The Omnia Assay Protocol for potency assessment against BTK is performed in a substantially similar manner as that described in Example 25 above except that the modified BTK-optimized reagent conditions are: • [BTK]=5 nM, [ATP]=[…], [Y5-Sox]=[…] (ATP KMapp ˜[…]).
# EGFR (T790M/L858R) = target: T3, EGFR (T790M/L858R) (Homo sapiens, UniProt P00533, L858R/T790M); assay: Omnia continuous-read kinase assay, EGFR (T790M/L858R); conditions: read-out: EGFR (T790M/L858R) inhibiton
# T3 construct: purchased BPS Bioscience 40350
# From the text: as §1, §2, §3
# Chain of BTK (Q06187 whole entry): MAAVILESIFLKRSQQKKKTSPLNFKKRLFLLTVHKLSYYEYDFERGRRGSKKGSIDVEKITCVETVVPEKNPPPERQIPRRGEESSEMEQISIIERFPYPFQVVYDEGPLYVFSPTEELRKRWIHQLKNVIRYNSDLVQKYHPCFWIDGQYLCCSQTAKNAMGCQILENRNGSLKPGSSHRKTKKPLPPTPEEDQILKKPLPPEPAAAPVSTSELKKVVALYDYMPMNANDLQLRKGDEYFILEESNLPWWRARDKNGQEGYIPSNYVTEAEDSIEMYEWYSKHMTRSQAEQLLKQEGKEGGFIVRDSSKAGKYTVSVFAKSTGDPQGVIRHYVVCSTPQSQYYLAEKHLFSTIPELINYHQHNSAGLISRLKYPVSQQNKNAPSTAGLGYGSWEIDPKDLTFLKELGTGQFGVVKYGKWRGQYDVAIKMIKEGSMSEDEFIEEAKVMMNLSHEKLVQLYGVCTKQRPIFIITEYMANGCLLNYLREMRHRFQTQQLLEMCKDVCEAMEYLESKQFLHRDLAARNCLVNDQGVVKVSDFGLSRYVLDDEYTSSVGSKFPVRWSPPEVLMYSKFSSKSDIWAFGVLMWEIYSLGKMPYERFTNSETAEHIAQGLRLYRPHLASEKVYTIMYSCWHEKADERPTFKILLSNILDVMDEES
# T2 sequence (P00533 25-1210): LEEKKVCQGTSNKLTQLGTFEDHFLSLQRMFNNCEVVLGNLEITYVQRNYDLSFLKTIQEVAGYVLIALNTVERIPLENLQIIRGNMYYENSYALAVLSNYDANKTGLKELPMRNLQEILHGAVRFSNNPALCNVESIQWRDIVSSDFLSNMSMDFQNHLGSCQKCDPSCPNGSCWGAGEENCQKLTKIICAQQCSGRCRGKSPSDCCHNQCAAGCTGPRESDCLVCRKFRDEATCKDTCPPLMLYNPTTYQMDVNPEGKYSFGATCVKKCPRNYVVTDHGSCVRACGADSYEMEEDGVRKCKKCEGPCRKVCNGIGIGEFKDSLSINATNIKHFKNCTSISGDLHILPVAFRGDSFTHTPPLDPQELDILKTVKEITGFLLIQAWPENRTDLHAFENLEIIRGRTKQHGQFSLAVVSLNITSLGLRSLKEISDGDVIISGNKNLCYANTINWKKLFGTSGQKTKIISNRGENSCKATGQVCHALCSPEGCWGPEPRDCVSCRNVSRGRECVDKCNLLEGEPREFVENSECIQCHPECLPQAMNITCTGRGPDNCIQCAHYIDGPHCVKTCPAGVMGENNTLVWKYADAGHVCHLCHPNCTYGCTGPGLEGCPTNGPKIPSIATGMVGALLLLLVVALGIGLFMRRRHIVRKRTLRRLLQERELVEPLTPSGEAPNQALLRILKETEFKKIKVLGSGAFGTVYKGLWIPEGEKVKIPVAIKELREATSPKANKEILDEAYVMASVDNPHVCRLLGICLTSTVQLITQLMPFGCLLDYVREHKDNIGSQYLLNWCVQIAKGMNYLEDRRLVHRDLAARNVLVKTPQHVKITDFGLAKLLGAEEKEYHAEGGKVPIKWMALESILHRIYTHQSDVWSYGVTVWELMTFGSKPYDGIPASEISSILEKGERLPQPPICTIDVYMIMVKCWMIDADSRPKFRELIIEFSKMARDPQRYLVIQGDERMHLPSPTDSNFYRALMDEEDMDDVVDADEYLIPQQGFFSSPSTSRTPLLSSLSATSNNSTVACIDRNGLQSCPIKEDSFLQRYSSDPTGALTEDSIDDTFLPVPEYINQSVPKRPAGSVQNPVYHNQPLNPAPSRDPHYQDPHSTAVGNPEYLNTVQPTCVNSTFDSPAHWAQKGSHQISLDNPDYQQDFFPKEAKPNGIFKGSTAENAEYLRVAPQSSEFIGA
# T3 sequence (P00533 25-1210 T790M/L858R): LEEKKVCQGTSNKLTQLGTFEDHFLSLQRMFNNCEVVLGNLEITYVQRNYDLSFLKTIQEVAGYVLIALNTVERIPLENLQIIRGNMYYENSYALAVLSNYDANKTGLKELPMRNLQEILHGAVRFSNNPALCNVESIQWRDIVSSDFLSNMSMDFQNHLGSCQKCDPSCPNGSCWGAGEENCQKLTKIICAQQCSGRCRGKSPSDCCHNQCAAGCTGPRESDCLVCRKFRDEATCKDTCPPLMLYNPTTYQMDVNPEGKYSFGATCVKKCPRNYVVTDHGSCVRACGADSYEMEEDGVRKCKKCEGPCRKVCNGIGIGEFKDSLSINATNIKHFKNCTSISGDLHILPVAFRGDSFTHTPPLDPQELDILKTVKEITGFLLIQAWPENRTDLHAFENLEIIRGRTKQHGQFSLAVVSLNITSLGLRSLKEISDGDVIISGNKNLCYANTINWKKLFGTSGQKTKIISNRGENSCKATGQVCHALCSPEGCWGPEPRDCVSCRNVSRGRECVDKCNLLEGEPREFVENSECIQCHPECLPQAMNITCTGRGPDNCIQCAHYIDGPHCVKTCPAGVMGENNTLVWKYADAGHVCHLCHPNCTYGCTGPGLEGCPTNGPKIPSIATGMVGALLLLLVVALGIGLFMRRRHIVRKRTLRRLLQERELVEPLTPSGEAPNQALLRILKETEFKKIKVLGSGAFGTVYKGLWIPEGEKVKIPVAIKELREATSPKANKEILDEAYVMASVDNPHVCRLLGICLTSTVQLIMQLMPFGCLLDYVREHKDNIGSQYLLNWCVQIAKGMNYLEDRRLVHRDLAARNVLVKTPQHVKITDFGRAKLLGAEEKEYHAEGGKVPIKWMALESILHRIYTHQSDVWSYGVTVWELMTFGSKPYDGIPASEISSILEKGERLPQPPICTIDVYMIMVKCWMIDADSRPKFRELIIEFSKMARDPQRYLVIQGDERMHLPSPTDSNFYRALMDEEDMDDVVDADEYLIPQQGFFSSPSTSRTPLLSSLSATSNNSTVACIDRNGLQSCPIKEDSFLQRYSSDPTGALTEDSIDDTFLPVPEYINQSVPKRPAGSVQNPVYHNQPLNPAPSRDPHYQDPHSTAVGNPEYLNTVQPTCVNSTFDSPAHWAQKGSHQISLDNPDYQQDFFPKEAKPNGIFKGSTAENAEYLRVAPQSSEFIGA
Structure (SMILES),IC50 (JAK3),IC50 (EGFR (WT)),IC50 (BTK),IC50 (EGFR (T790M/L858R))
CN(C)C/C=C/C(=O)Nc1cccc(Nc2cc(Oc3ccc(F)c(Cl)c3)ncn2)c1 [I-92)],,≤ 10 nM,,
CC(Cl)C(=O)Nc1cccc(Nc2cc(Nc3ccc(F)c(Cl)c3)ncn2)c1 (stereo not shown) [I-50)],,≤ 10 nM,,10 to 100 nM
"O=C(CCl)Nc1cccc(Nc2cc(Oc3ccc(NC(=O)Nc4ccc(Cl)c(C(F)(F)F)c4)cc3)ncn2)c1 [I-69, N-3-[6-(4-[4-[[4-chloro-3-(trifluoromethyl)phenyl]amino]-carbonyl]amino)phenoxypyrimidin-4-yl]aminophenylchloroacetamide]",100 to 1000 nM,10 to 100 nM,100 to 1000 nM,
"C=CC(=O)Nc1cccc(Nc2cc(Sc3ccc(Oc4ccccc4)cc3)ncn2)c1 [I-103, N-(3-(6-(4-phenoxyphenylthio)pyrimidin-4-ylamino)phenyl)acrylamide]",,≤ 10 nM,100 to 1000 nM,
"CC(Cl)C(=O)Nc1cccc(Nc2cc(Nc3ccc(F)c(Cl)c3)ncn2)c1 (stereo not shown) [I-50, 2-chloro-N-[3-(6-{3-chloro-4-fluorophenyl}aminopyrimidin-4-yl)aminophenyl]propionamide]",100 to 1000 nM,,1000 to 10000 nM,
"CC(C)=CC(=O)c1cccc(Nc2cc(Nc3ccc(Oc4ccccc4)cc3)ncn2)c1 [I-87, 3-methyl-1-(3-(6-(4-phenoxyphenylamino)pyrimidin-4-ylamino)phenyl)but-2-en-1-one]",,10 to 100 nM,≥ 10000 nM,
"C=CC(=O)Nc1ccc(Nc2cc(Nc3ccc(Oc4ccccc4)cc3)ncn2)cc1 [I-80, N-4-[6-(4-phenoxyphenyl)amino-pyrimidin-4-yl]aminophenylpropenamide]",≥ 10000 nM,100 to 1000 nM,1000 to 10000 nM,
"C=CC(=O)N1CCC(Nc2cc(Nc3ccc(F)c(Cl)c3)ncn2)C1 (stereo not shown) [I-70, 1-(3-(6-(3-chloro-4-fluorophenyamino)pyrimidin-4-ylamino)pyrrolidin-1-yl)prop-2-en-1-one]",100 to 1000 nM,≤ 10 nM,100 to 1000 nM,
"C=CC(=O)N1CCCC(Nc2cc(Nc3ccc(F)c(Cl)c3)ncn2)C1 (stereo not shown) [I-71, 1-(3-(6-(3-chloro-4-fluorophenyamino)pyrimidin-4-ylamino)piperidin-1-yl)prop-2-en-1-one]",1000 to 10000 nM,≤ 10 nM,1000 to 10000 nM,
C=C(C#N)C(O)c1cccc(Nc2cc(Nc3ccc(Oc4ccccc4)cc3)ncn2)c1 (stereo not shown) [I-84],≥ 10000 nM,10 to 100 nM,1000 to 10000 nM,

# Second part, the compound after the results:
IC50 (JAK3),IC50 (EGFR (WT)),IC50 (BTK),IC50 (EGFR (T790M/L858R)),Structure (SMILES)
1000 to 10000 nM,10 to 100 nM,10 to 100 nM,,"C=CC(=O)N1CCC(Nc2cc(Nc3ccc(Oc4ccccc4)cc3)ncn2)C1 (stereo not shown) [I-85, 1-(3-(6-(4-phenoxyphenylamino)pyrimidin-4-ylamino)pyrrolidin-1-yl)prop-2-en-1-one]"
,≤ 10 nM,100 to 1000 nM,,"C=CC(=O)Nc1cccc(Nc2cc(Oc3ccc(Oc4ccccc4)cc3)ncn2)c1 [I-97, N-(3-(6-(4-phenoxyphenoxy)pyrimidin-4-ylamino)phenyl)acrylamide]"
,≤ 10 nM,10 to 100 nM,,"C=CC(=O)Nc1cc(Nc2cc(Oc3cccc(Cl)c3)ncn2)ccc1N1CCOCC1 [I-105, N-(2-morpholino-5-(6-(3-chlorophenoxy)pyrimidin-4-ylamino)phenyl)acrylamide]"
,≤ 10 nM,10 to 100 nM,,"C=CC(=O)Nc1cc(Nc2cc(Oc3ccc(Oc4ccccc4)cc3)ncn2)cc(C(=O)NCCOC)c1 [I-102, 3-acrylamido-N-(2-methoxyethyl)-5-(6-(4-phenoxyphenoxy)pyrimidin-4-ylamino)benzamide]"
100 to 1000 nM,≤ 10 nM,≤ 10 nM,,"C=CC(=O)Nc1cccc(Nc2cc(Nc3cccc(Oc4ccccc4)c3)ncn2)c1 [I-75, N-(3-(6-(3-phenoxyphenylamino)pyrimidin-4-ylamino)phenyl)acrylamide]"
≥ 10000 nM,10 to 100 nM,10 to 100 nM,,"C=CC(=O)N1CCCC(Nc2cc(Nc3ccc(Oc4ccccc4)cc3)ncn2)C1 (stereo not shown) [I-86, 1-(3-(6-(4-phenoxyphenylamino)pyrimidin-4-ylamino)piperidin-1-yl)prop-2-en-1one]"
,≤ 10 nM,≤ 10 nM,,"C=CC(=O)N1CC(C)(C)Oc2ccc(Nc3cc(Oc4cccc(Cl)c4)ncn3)cc21 [I-104, 1-(6-(6-(3-chlorophenoxy)pyrimidin-4-ylamino)-2,2-dimethyl-2H-benzo[b][1,4]oxazin-4(3H)-yl)prop-2-en-1-one]"
100 to 1000 nM,,≤ 10 nM,,"CN(C)C/C=C/C(=O)Nc1cccc(Nc2cc(Nc3ccc(Oc4ccccc4)cc3)ncn2)c1 [I-62, (E)-N-3-[6-(4-phenoxyphenyl)amino-pyrimidin-4-yl]aminophenyl-4-(dimethylamino)but-2-enamide]"
,≤ 10 nM,≤ 10 nM,,"C=C(C)C(=O)c1cccc(Nc2cc(Nc3ccc(Oc4ccccc4)cc3)ncn2)c1 [I-83, 2-methyl-1-(3-(6-(4-phenoxyphenylamino)pyrimidin-4-ylamino)phenyl)prop-2-en-1-one]"
≤ 10 nM,≤ 10 nM,10 to 100 nM,,"C#Cc1cccc(Nc2cc(Nc3cccc(NC(=O)C=C)c3)ncn2)c1 [I-68, N-3-[6-(3-ethynylphenylamino)-pyrimidin-4-yl]aminophenyl-2-propenamide]"
10 to 100 nM,,10 to 100 nM,,"CN(C)C/C=C/C(=O)Nc1cccc(Nc2cc(Oc3ccc(F)c(Cl)c3)ncn2)c1 [I-92, (E)-N-(3-(6-(3-chloro-4-fluorophenoxy)pyrimidin-4-ylamino)phenyl)-4-(dimethylamino)but-2-enamide]"
,≤ 10 nM,≤ 10 nM,,"C=CC(=O)Nc1cccc(Nc2cc(Oc3ccc(OC)cc3)ncn2)n1 [I-91, N-(6-(6-(4-methoxyphenoxy)pyrimidin-4-ylamino)pyridine-2-yl)acrylamide]"
≤ 10 nM,≤ 10 nM,≤ 10 nM,,"CN(C)C/C=C/C(=O)Nc1cccc(Nc2cc(Nc3ccccc3)ncn2)n1 [I-73, (E)-4-(dimethylamino)-N-(6-(6-(phenylamino)pyrimidin-4-ylamino)pyridine-2-yl)but-2-enamide]"
